Assays:
CAL-27 = assay: Antiproliferative activity against human CAL27 cells assessed as growth inhibition at 10 uM incubated for 72 hrs by sulforhodamine B assay; type: functional; settings: CAL-27, 72 h, read-out: GI
[1] = biological target: T1, 3',5'-cyclic-AMP phosphodiesterase 4B (Homo sapiens, UniProt Q07343); assay: Inhibition of recombinant human PDE4B expressed in baculovirus infected Sf9 cells at 10 uM using [3H] cAMP as substrate after 30 min by scintillation proximity assay relative to control
[2] = biological target: T2, 3',5'-cyclic-AMP phosphodiesterase 4D (Homo sapiens, UniProt Q08499); assay: Inhibition of PDE4D2 (unknown origin) at 30 uM relative to control
[3] = biological target: T1, 3',5'-cyclic-AMP phosphodiesterase 4B; assay: Inhibition of recombinant human PDE4B expressed in baculovirus infected Sf9 cells using [3H] cAMP as substrate after 30 min by scintillation proximity assay
Homo sapiens = organism: Homo sapiens; assay: Selectivity ratio of inhibition of PDE4D2 (unknown origin) to inhibition of recombinant human PDE4B expressed in baculovirus infected Sf9 cells using [3H] cAMP as substrate after 30 min
Phosphodiesterase 4 = Phosphodiesterase 4 (Homo sapiens, UniProt P27815+Q08499+Q07343+Q08493); assay: Inhibition of PDE4 (unknown origin) assessed as inhibition of TNF-alpha release; type: protein assay
[4] = Metabolic stability in rat liver microsomes assessed as parent compound remaining at 5 uM after 60 mins; type: ADME, Microsome; settings: read-out: Stability
[5] = Half life in rat liver microsomes at 5 uM incubated for 60 mins; type: ADME, Microsome
[6] = Intrinsic clearance in rat liver microsomes at 5 uM after 60 mins; type: ADME, Microsome; settings: read-out: CLH
[7] = biological target: T2, 3',5'-cyclic-AMP phosphodiesterase 4D; assay: Inhibition of PDE4D2 (unknown origin) at 10 uM relative to control
[8] = biological target: T2, 3',5'-cyclic-AMP phosphodiesterase 4D; assay: Inhibition of PDE4D2 (unknown origin) at 10 nM relative to control
[9] = biological target: T1, 3',5'-cyclic-AMP phosphodiesterase 4B; settings: Sf9, 10 nM
Description: Inhibition of recombinant human PDE4B expressed in baculovirus infected Sf9 cells at 10 nM using [3H] cAMP as substrate after 30 min by scintillation proximity assay relative to control

T2 sequence (Q08499 whole entry): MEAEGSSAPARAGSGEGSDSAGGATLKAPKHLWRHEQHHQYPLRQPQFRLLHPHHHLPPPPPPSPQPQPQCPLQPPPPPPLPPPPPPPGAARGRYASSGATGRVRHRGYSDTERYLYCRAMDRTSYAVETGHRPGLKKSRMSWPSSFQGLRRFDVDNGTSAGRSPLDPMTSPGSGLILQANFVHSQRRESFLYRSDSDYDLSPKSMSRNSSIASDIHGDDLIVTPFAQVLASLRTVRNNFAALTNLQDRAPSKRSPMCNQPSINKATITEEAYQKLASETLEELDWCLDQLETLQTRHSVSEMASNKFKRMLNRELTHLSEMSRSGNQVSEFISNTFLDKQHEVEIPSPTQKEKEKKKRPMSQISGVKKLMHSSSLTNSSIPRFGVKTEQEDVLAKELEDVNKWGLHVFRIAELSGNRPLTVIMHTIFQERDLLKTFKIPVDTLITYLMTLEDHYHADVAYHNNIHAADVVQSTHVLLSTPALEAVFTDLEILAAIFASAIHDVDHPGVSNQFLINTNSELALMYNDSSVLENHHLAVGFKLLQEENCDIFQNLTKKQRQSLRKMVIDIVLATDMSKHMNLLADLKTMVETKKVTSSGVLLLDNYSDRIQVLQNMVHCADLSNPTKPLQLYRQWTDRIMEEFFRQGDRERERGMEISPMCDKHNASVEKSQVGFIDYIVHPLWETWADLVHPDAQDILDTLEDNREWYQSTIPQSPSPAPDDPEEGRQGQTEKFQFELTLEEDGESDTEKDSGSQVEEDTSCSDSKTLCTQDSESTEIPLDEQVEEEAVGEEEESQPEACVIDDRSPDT
T1 sequence (Q07343 whole entry): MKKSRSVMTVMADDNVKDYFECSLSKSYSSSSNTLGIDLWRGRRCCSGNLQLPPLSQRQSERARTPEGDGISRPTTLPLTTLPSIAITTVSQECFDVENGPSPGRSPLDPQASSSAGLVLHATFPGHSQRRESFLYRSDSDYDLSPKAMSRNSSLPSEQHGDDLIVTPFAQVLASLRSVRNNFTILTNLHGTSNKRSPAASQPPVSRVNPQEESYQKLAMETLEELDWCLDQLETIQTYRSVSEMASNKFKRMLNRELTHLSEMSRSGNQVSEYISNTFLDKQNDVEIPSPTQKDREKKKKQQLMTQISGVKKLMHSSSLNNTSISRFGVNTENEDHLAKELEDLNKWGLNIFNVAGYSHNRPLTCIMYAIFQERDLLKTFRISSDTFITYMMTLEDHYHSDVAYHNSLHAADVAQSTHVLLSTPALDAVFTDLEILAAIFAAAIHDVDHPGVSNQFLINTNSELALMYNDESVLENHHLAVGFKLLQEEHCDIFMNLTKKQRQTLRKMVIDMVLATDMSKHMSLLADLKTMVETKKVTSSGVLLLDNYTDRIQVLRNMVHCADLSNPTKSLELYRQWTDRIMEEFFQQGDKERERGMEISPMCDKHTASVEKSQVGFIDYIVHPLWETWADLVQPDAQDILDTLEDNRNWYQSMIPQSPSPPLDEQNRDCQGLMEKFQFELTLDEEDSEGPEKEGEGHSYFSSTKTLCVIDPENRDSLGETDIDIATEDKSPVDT

| SMILES | inhibition [1] | inhibition at 30 µM [2] | other results |
| --- | --- | --- | --- |
| Cc1cccc(Nc2ccccc2COCc2cc3cc(F)ccc3n2S(C)(=O)=O)c1C | 68% | 42% | inhibition of growth at 10 µM (CAL-27): 55.6%; IC50 [3]: 1.34 µM; Selectivity ratio (Homo sapiens): 4.5; IC50 (Phosphodiesterase 4): 5.81 µM; inhibition (Phosphodiesterase 4): Dose-dependent effect; remaining at 1 h, 5 µM [4]: 64.9%; half-life at 5 µM [5]: 1.83 h; microsomal CLint at 5 µM [6]: 25.2 µL/min/mg; inhibition at 10 µM [7]: 15% |
| Cc1ccc2c(c1)cc(COCc1ccccc1Nc1cccc(C)c1C)n2S(C)(=O)=O | 55.1% | 38.9% | IC50 [3]: 4.13 µM |
| CCc1ccc2c(c1)cc(COCc1ccccc1Nc1cccc(C)c1C)n2S(=O)(=O)c1ccc(C)cc1 | 32.1% |  |  |
| Cc1cccc(Nc2ccccc2COCc2cc3cc(Cl)ccc3n2S(C)(=O)=O)c1C | 54.9% | 33.6% | IC50 [3]: 4.48 µM |
| Cc1cc(C)c2c(c1)cc(COCc1ccccc1Nc1cccc(C)c1C)n2S(C)(=O)=O | 37.3% |  |  |
| Cc1ccc(S(=O)(=O)n2c(COCc3ccccc3Nc3cccc(C)c3C)cc3cc(C)ccc32)cc1 | 36.2% |  |  |
| Cc1ccc(S(=O)(=O)n2c(COCc3ccccc3Nc3cccc(C)c3C)cc3cc(F)ccc32)cc1 | 34.6% |  |  |
| Cc1cccc(Nc2ccccc2C(=O)O)c1C [MEFENAMIC ACID] | 38.9% | 35.5% |  |
| Cc1ccc(S(=O)(=O)n2c(COCc3ccccc3Nc3cccc(C)c3C)cc3cc(C)cc(C)c32)cc1 | 23.1% |  |  |
| Cc1ccc(S(=O)(=O)n2c(COCc3ccccc3Nc3cccc(C)c3C)cc3ccccc32)cc1 | 39.9% |  |  |
| Cc1ccc(S(=O)(=O)n2c(COCc3ccccc3Nc3cccc(C)c3C)cc3cc(Br)ccc32)cc1 | 24.6% |  |  |
| Cc1cccc(Nc2ccccc2COCc2cc3cc(Br)ccc3n2S(C)(=O)=O)c1C | 40.4% |  |  |
| Cc1cccc(Nc2ccccc2COCc2cc3ccccc3n2S(C)(=O)=O)c1C | 61.5% | 40.9% | IC50 [3]: 1.76 µM |
| Cc1ccc(S(=O)(=O)n2c(COCc3ccccc3Nc3cccc(C)c3C)cc3cc(Cl)ccc32)cc1 | 26.8% |  |  |
| O=C(Nc1c(Cl)cncc1Cl)c1ccc(OC(F)F)c(OCC2CC2)c1 [ROFLUMILAST] |  |  | inhibition at 0.01 µM [8]: 88.3%; inhibition [9]: 91.6% |

— ChEMBL document CHEMBL4627346, “Ultrasound assisted rapid synthesis of mefenamic acid based indole derivatives under ligand free Cu-catalysis: Their pharmacological evaluation” (Bioorg Med Chem Lett, 2020)
